Measurements taken from PMC6572996, “Silver(I) Complexes of the Pharmaceutical Agents Metronidazole and 4-Hydroxymethylpyridine: Comparison of Cytotoxic Profile for Potential Clinical Application” (Molecules, 2019).

Key:
Balb/c 3T3 cells [1] = experiment: MTT assay (mitochondrial activity), Balb/c 3T3; assay type: cell-based, mouse; settings: for Lowest concentration with significant (p ≤ 0.05) inhibition of mitochondrial activity (MTT): Balb/c 3T3, 72 h, vs negative control 0.1% DMSO; for IC50: Balb/c 3T3, 72 h exposure, mean (n = 3) ± SEM, read-out: Inhibitory concentration IC50, MTT
Procedure: (§1) Data obtained from the measurement of the optical density in these assays were transformed to percentages in relation to the control group, considered to be 100% for the MTT, NRU, and TPC assays and 0% for the LDH assay (Figure 1).
(§2) The human hepatoma cell line (HepG2) was purchased from the American Type Culture Collection (ATCC HB-8065). These cells were cultured in Minimum Essential Medium Eagle (MEME) (ATCC). The murine fibroblast cell line (Balb/c 3T3 clone A31) (gift from Department of Swine Diseases of the National Veterinary Research Institute in Pulawy) was cultured in Dulbecco’s Modified Eagle’s Medium (DMEM) (ATCC). The media were supplemented with 10% BCS (Balb/c 3T3), 10% FBS (HepG2), 1% L-glutamine, and 1% antibiotic solution. The cells were maintained in 75 cm^2 cell culture flasks (Nunc, Roskilde, Denmark) in a humidified incubator, NuAire (Plymouth, MN, USA) at 37 °C, in an atmosphere of 5% CO2. The medium was refreshed every two or three days and the cells were trypsinized by 0.25% trypsin–0.02% EDTA after reaching 70–80% confluence. Single cell suspensions were prepared and adjusted to a density of 2 × 10^5 cells/mL (HepG2) and 5 × 10^4 cells/mL (Balb/c 3T3). The cell suspension was transferred to 96-well plates (100 µL/well) and incubated for 24 h before the exposure to the study compounds.
(§3) The concentration ranges of compounds were chosen according to their solubility and their plasma level. Each compound was dissolved in DMSO. The final concentration of DMSO was 0.1% in the medium. The same final concentrations of the solvent and the 1% Trition-X 100 solution were used as the negative and positive controls, respectively. […] All compound solutions in the medium were freshly prepared and protected from light. […] The concentration range was selected on the basis of results from previous studies. Each concentration was tested in six replicates with three independent experiments. Cytotoxicity was assessed after 72 h of exposure of the cells to the compounds. The medium was not changed during the incubation time.
(§4) The metabolic activity of living cells was assessed by measuring the activity of dehydrogenases. After incubation of the cells with the compounds, a 10 μL portion of the MTT solution (5 mg/ml in PBS) was added to each well of the 96-well plates and incubated. After 3 h, the MTT solution was removed and the intracellular formazan crystals were dissolved in 100 µl DMSO. The plate was shaken for 15 min at room temperature and transferred to a microplate reader (LabSystems Multiskan RC, Thermo Fisher Scientific, Waltham, MA, USA) to measure the absorbance at 570 nm, using blanks as a reference. Cytotoxicity was expressed as a percentage of the negative control (0.1% DMSO).
(§5) The results of the tests were expressed as a mean ± SD. The experiments were performed in three independent repetitions. Statistical analysis was performed using GraphPad Prism 5 (San Diego, CA, USA). One-way analysis of variance (ANOVA) followed by Dunnett’s post-hoc test was applied. The 50% inhibition (cytotoxicity) concentrations (IC50) were derived from the dose–response curve plotted with the concentration of the compound (X-axis) vs. cell viability percent (Y-axis). The IC50 values were calculated by GraphPad Prism 5 software (San Diego, CA, USA). Statistical comparisons among IC50 values were performed by the analysis of variance (ANOVA) followed by the Tukey test. Values of p ≤ 0.05 were considered statistically significant.

HepG2 cells [2] = experiment: TPC assay (total protein content), HepG2; assay type: cell-based, human; settings: for Lowest concentration with significant (p ≤ 0.05) decrease of total protein content (TPC): HepG2, 72 h, vs negative control 0.1% DMSO; for IC50: HepG2, 72 h exposure, mean (n = 3) ± SEM, read-out: Inhibitory concentration IC50, TPC
Procedure: as §1, §2, §3
(§6) The assay was based upon staining total cellular protein (proliferation). After incubation, the medium containing the compound was removed and 100 µL of Coomassie Brilliant Blue R-250 dye were added to each well. The plate was shaken for 10 min. Then, the stain was removed and the cells were rinsed twice with 100 µL of washing solution (glacial acetic acid/ethanol/water). After that, a 100 µL portion of the desorbing solution (1 M potassium acetate) was added and plates were shaken again for 10 min. The absorbance was measured at 595 nm in a microplate reader (LabSystems Multiskan RC, Thermo Fisher Scientific, Waltham, MA, USA) using a blank as a reference. Cytotoxicity was expressed as a percentage of the negative control (0.1% DMSO).
as §5

HepG2 cells [3] = experiment: Leakage LDH assay (cellular membrane integrity), HepG2; assay type: cell-based, human; settings: for IC50: HepG2, 72 h exposure, mean (n = 3) ± SEM, read-out: Inhibitory concentration IC50, LDH
Procedure: as §1, §2, §3
(§7) The integrity of the plasma membrane was assessed using the test of lactate dehydrogenase (LDH) release, which was monitored using the commercially available Cytotoxicity Detection Kit (LDH) (Roche Diagnostics, Warsaw, Poland). The medium (100 µL/well) without cells was transferred into the corresponding wells of an optically clear 96-well flat bottom microplate and a 100 µl reaction mixture was added to each well. Then, the plates were incubated for 30 min at room temperature in darkness. After that time, a 50 µL/well 1 M HCl was added to stop the reaction. The absorbance was measured at 492 nm in a microplate reader (LabSystems Multiskan RC, Thermo Fisher Scientific, Waltham, MA, USA) using a blank as a reference.
as §5

HepG2 cells [4] = experiment: MTT assay (mitochondrial activity), HepG2; assay type: cell-based, human; settings: for IC50: HepG2, 72 h exposure, mean (n = 3) ± SEM, read-out: Inhibitory concentration IC50, MTT
Procedure: as §1, §2, §3, §4, §5

Balb/c 3T3 cells [5] = experiment: NRU assay (lysosomal activity), Balb/c 3T3; assay type: cell-based, mouse; settings: for IC50: Balb/c 3T3, 72 h exposure, mean (n = 3) ± SEM, read-out: Inhibitory concentration IC50, NRU
Procedure: as §1, §2, §3
(§8) The assay, based on the staining of living cells by neutral red, was performed according to the protocol described by Borenfreund and Puerner. After incubation, the medium containing the compound was removed and the cells were washed with PBS. Then, a 100 µL/well of NR solution (50 µg/mL) was added for 3 h. After that time, the cells were washed with PBS. The dye from viable cells was released by extraction with a mixture of acetic acid, ethanol, and water. After 10 min of shaking, the absorbance of the dissolved NR was measured at 540 nm in a microplate reader (LabSystems Multiskan RC, Thermo Fisher Scientific, Waltham, MA, USA) using a blank as a reference. Cytotoxicity was expressed as a percentage of the negative control (0.1% DMSO).
as §5

Balb/c 3T3 cells [6] = experiment: TPC assay (total protein content), Balb/c 3T3; assay type: cell-based, mouse; settings: for IC50: Balb/c 3T3, 72 h exposure, mean (n = 3) ± SEM, read-out: Inhibitory concentration IC50, TPC
Procedure: as §1, §2, §3, §6, §5

Balb/c 3T3 cells [7] = experiment: Leakage LDH assay (cellular membrane integrity), Balb/c 3T3; assay type: cell-based, mouse; settings: for IC50: Balb/c 3T3, 72 h exposure, mean (n = 3) ± SEM, read-out: Inhibitory concentration IC50, LDH
Procedure: as §1, §2, §3, §7, §5

[8] = tested on: murine melanoma (B16) cell line; set-up: method as in PMID 26828469; settings: cited from earlier work
HepG2 cells [9] = experiment: NRU assay (lysosomal activity), HepG2; assay type: cell-based, human; settings: for Lowest concentration with significant (p ≤ 0.05) inhibition of lysosomal activity (NRU): HepG2, 72 h, vs negative control 0.1% DMSO; for IC50: HepG2, 72 h exposure, mean (n = 3) ± SEM, read-out: Inhibitory concentration IC50, NRU
Procedure: as §1, §2, §3, §8, §5

MB157 (breast) cell line = tested on: MB157 (breast) cell line; set-up: method as in PMID 18615197; settings: 72 h; cited from earlier work
H-ras 5RP7 cells = settings: 24 h exposure; cited from earlier work
[10] = HepG2, 72 h, vs negative control 0.1% DMSO
[11] = Balb/c 3T3, 72 h, vs negative control 0.1% DMSO

For `Cc1ncc([N+](=O)[O-])n1CCO` [Metronidazole], the “Lowest concentration with significant (p ≤ 0.05) inhibition of mitochondrial activity (MTT)” value (Balb/c 3T3 cells [1]) was 36 µM, the IC50 (Balb/c 3T3 cells [1]; Mus musculus, BALB/c3T3) was > 146 µM and the “Lowest concentration with significant (p ≤ 0.05) decrease of total protein content (TPC)” value (HepG2 cells [2]) was 8.8 µM. For the same compound, the IC50 (HepG2 cells [2]; Homo sapiens) was > 146 µM, the IC50 (HepG2 cells [3]; Homo sapiens) was > 146 µM and the IC50 (HepG2 cells [4]; Homo sapiens) was > 146 µM. For the same compound, the IC50 (Balb/c 3T3 cells [5]; Mus musculus, BALB/c3T3) was > 146 µM, the IC50 (Balb/c 3T3 cells [6]; Mus musculus, BALB/c3T3) was > 146 µM and the IC50 (Balb/c 3T3 cells [7]; Mus musculus, BALB/c3T3) was > 146 µM. For the same compound, the “Cytotoxicity in B16 cell line” value ([8]; same observation as in this study) was “poorly cytotoxic”, the “Lowest concentration with significant (p ≤ 0.05) inhibition of lysosomal activity (NRU)” value (HepG2 cells [9]) was 146 µM and the IC50 (HepG2 cells [9]; Homo sapiens) was > 146 µM.

For `O=[N+]([O-])[O-].[Ag+]` [Silver nitrate], the “Lowest concentration with significant (p ≤ 0.05) inhibition of mitochondrial activity (MTT)” value (Balb/c 3T3 cells [1]) was 2.2 µM, the IC50 (Balb/c 3T3 cells [1]) was 2.13 ± 0.88 µM and the “Lowest concentration with significant (p ≤ 0.05) decrease of total protein content (TPC)” value (HepG2 cells [2]) was 8.8 µM. For the same compound, the IC50 (HepG2 cells [2]) was 60.3 ± 8.1 µM, the IC50 (MB157 (breast) cell line) was 5 µM and the “Lowest concentration with significant (p ≤ 0.05) disintegration of the cellular membrane (LDH)” value (HepG2 cells [3]; [10]) was 4.4 µM. The IC50 (HepG2 cells [3]) was 3.47 ± 0.24 µM, the “Lowest concentration with significant (p ≤ 0.05) inhibition of mitochondrial activity (MTT)” value (HepG2 cells [4]; [10]) was 4.4 µM and the IC50 (HepG2 cells [4]) was 6.48 ± 1.6 µM. The “Lowest concentration with significant (p ≤ 0.05) inhibition of lysosomal activity (NRU)” value (Balb/c 3T3 cells [5]; [11]) was 2.2 µM, the IC50 (Balb/c 3T3 cells [5]) was 2.94 ± 1.06 µM and the “Lowest concentration with significant (p ≤ 0.05) decrease of total protein content (TPC)” value (Balb/c 3T3 cells [6]; [11]) was 2.2 µM. For the same compound, the IC50 (Balb/c 3T3 cells [6]) was 2.59 ± 1.3 µM, the IC50 (H-ras 5RP7 cells) was 6.75 µM and the “Lowest concentration with significant (p ≤ 0.05) disintegration of the cellular membrane (LDH)” value (Balb/c 3T3 cells [7]; [11]) was 2.2 µM. For the same compound, the IC50 (Balb/c 3T3 cells [7]) was 3.12 ± 0.06 µM, the IC50 ([8]; 72 h incubation) was 9.74 µM and the “Lowest concentration with significant (p ≤ 0.05) inhibition of lysosomal activity (NRU)” value (HepG2 cells [9]) was 4.4 µM. The IC50 (HepG2 cells [9]) was 6.18 ± 1.41 µM.
